From patent publication US12486284B2, “Ubiquitin-specific protease inhibitor and preparation method therefor and use thereof” (CHASER THERAPEUTICS, INC., priority 2019, dated 2025)
Like-named read-outs stand apart in the source and are kept apart here.

Tests used:
[1] = biological target: T1, USP28 (Homo sapiens, UniProt Q96RU2); assay: USP28 activity measured using ubiquitin-rhodamine 110 method; format: biochemical; conditions: for IC50: purified USP28 4 nM, ubiquitin-rhodamine 110 125 nM, 30 min preincubation; for IC50(F)/IC50(E) USP28: ratio of IC50 of related 3-NH2 compound (F) to IC50 of 3-NHMe compound disclosed herein (E)
T1 construct: purchased R&D Systems
T1 sequence (Q96RU2 1-1077): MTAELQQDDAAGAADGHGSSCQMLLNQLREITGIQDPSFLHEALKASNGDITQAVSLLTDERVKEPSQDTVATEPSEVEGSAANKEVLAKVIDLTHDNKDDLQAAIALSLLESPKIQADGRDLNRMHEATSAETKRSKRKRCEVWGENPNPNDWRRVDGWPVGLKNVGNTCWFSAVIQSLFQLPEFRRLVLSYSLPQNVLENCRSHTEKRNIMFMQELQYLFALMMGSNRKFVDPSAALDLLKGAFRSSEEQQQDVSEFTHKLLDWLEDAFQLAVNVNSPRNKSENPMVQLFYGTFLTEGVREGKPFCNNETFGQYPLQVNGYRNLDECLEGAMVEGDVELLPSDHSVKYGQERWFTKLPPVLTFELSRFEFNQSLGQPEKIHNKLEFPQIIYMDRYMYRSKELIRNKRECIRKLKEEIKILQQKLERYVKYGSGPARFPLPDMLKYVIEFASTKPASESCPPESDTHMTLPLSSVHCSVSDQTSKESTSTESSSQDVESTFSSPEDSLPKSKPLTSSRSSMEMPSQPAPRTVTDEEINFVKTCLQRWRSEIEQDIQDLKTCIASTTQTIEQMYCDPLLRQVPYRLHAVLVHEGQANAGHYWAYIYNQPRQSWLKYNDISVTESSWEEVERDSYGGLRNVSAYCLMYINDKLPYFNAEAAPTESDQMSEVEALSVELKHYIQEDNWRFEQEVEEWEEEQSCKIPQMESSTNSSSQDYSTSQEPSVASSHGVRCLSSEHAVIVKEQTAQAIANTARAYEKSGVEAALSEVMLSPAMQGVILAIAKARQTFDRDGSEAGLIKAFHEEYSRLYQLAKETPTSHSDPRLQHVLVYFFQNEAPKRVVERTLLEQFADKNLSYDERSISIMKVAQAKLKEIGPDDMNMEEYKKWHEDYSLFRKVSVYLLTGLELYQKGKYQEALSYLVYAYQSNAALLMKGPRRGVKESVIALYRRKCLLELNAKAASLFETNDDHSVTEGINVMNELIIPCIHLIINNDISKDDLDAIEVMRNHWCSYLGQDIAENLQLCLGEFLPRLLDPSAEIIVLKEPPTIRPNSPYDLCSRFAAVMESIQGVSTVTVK
Method: USP28 activity was measured using ubiquitin-rhodamine 110 method.
(§1) Purified USP28 and the ubiquitin-rhodamine 110 substrate used for measuring DUBs activity were both from R&D Systems. Test compounds were first dissolved in DMSO to prepare a 10 mM stock solution, and then the stock solution was diluted with a buffer solution [containing 20 mM Tris-HCl (pH 8.0), 2 mM CaCl2), 3 mM BME, 0.01% Prionix, 0.01% Triton X-100] to the desired concentration (with DMSO content less than or equal to 0.5%). The dilution was mixed well with USP28 (final concentration 4 nM) in a 96-well plate and incubated at room temperature for 30 min, and then added with the substrate (ubiquitin-rhodamine 110) to 125 nM. The final volume of the whole reaction system was 20 μL. The released fluorescence (excitation wavelength 485 nm, emission wavelength 535 nm) was detected immediately on a microplate reader after the addition of the substrate. The inhibitory rate of the test compound against USP28 was calculated according to the following formula: Inhibition %=1−[(test compound+fluorescence value of substrate−fluorescence value of test compound (no substrate))/mean fluorescence value of DMSO control group−fluorescence value of test compound (no substrate)]
According to the inhibitory rates of the test compound against USP28 under different concentrations, IC50 was calculated.

[2] = biological target: T2, USP25 (Homo sapiens, UniProt Q9UHP3); assay: USP25 activity measured using ubiquitin-rhodamine 110 method; format: biochemical; conditions: for IC50: purified USP25 15 nM, ubiquitin-rhodamine 110 125 nM, 30 min preincubation; for IC50(F)/IC50(E) USP25: ratio of IC50 of related 3-NH2 compound (F) to IC50 of 3-NHMe compound disclosed herein (E)
T2 construct: purchased R&D Systems
T2 sequence (Q9UHP3 1-1055): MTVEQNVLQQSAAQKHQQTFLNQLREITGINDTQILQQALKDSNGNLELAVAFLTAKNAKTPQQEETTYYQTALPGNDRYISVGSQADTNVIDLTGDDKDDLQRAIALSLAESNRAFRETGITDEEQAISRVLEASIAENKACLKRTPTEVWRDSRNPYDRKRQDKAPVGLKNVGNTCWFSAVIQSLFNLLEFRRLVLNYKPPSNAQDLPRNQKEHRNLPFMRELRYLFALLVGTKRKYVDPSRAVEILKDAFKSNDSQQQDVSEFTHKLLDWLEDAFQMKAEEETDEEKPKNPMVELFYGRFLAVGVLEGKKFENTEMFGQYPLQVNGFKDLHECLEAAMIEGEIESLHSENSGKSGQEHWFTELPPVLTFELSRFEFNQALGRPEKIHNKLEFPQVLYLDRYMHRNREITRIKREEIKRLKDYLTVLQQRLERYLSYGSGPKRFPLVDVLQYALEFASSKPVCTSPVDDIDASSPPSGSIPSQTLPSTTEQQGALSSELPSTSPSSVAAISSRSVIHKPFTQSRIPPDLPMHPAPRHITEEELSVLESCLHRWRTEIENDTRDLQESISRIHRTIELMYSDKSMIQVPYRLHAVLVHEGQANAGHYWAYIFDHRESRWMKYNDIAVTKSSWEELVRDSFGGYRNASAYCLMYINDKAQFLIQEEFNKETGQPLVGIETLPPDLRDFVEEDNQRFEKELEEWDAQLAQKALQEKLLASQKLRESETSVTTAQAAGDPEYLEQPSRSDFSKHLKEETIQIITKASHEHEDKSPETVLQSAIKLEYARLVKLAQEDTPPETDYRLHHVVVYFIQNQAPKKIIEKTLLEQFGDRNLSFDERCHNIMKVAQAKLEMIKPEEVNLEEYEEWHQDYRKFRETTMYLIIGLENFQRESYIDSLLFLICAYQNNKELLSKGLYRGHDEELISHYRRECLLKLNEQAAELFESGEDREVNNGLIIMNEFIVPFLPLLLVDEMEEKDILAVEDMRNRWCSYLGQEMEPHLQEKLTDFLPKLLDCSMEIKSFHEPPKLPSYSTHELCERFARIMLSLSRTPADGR
Method: USP25 activity was measured using ubiquitin-rhodamine 110 method.
as §1, with “Purified USP25” for “Purified USP28”, “with USP25” for “with USP28”, “concentration 15” for “concentration 4”, “the substrate, and the” for “the substrate. The”, “against USP25” for “against USP28”
As in Example 11, according to the inhibitory rates of the test compound against USP25 under different concentrations, IC50 was calculated.

[3] = Inhibitory activity against USP28 (IC50)
[4] = read-out: Inhibitory activity against USP25 (IC50)
[5] = read-out: Inhibitory activity against USP28 (IC50)
[6] = Inhibitory activity against USP25 (IC50)

`CNc1c(C(=O)NC2COc3cc(N4CC5CCC(C4)N5)ccc3C2)sc2nc(C)cnc12` (single isomer, unassigned) [Compound I-87] was tested, and the IC50 [1, 3] was < 100 nM and the IC50 [2, 4] was 100 to 1000 nM.
In the case of `CNc1c(C(=O)NC2COc3cc(N4CC5CCC(C4)N5)ccc3C2)sc2nc(C)cnc12` (single isomer, unassigned) [Compound I-88], the IC50 [1, 5] is reported as 1000 to 5000 nM and the IC50 [2, 4] is reported as 1000 to 5000 nM.
For `CNc1c(C(=O)NCCc2ccc(N3C[C@H]4CC[C@@H](C3)N4)cc2)sc2nc(C)ccc12` [Compound I-1, N-4-(3,8-diazabicyclo[3.2.1]octan-3-yl)phenethyl-6-methyl-3-methylaminothiophene[2,3-b]pyridine-2-carboxamide], the IC50 [1, 3] was < 100 nM, the “IC50(F)/IC50(E) USP28” value [1] was 18.75 and the IC50 [2, 6] was < 100 nM. The “IC50(F)/IC50(E) USP25” value [2] was >20.
For `CNc1c(C(=O)NCCc2ccc(N3CCNCC3)cc2)sc2nc(C)ccc12` [Compound I-2], the IC50 [1, 5] was 100 to 1000 nM and the IC50 [2, 4] was 100 to 1000 nM.
In the case of `CNc1c(C(=O)NCCc2ccc(C3CCNCC3)cc2)sc2nc(C)ccc12` [Compound I-3], the IC50 [1, 5] is reported as < 100 nM and the IC50 [2, 4] is reported as 100 to 1000 nM.
With `CNc1c(C(=O)NCCc2ccc(C3CC4CCC(C3)N4)cc2)sc2nc(C)ccc12` (stereo not shown) [Compound I-4] the IC50 [1, 3] was < 100 nM and the IC50 [2, 6] was < 100 nM.
`CNc1c(C(=O)NCCc2ccc(C3C4CCC3CNC4)cc2)sc2nc(C)ccc12` (stereo not shown) [Compound I-5] was tested, and the IC50 [1, 5] was < 100 nM and the IC50 [2, 4] was < 100 nM.
`CNc1c(C(=O)NCCc2ccc(N3C4CCC3CNC4)cc2)sc2nc(C)ccc12` [Compound I-6] was tested, and the IC50 [1, 3] was < 100 nM and the IC50 [2, 6] was < 100 nM.
With `CNc1c(C(=O)NCCc2ccc(C3CC4CC3CN4)cc2)sc2nc(C)ccc12` (stereo not shown) [Compound I-7] the IC50 [1, 5] was < 100 nM and the IC50 [2, 4] was 100 to 1000 nM.
`CNc1c(C(=O)NCCc2ccc(N3CC4CC3CN4)cc2)sc2nc(C)ccc12` (stereo not shown) [Compound I-8] was tested, and the IC50 [1, 5] was < 100 nM and the IC50 [2, 4] was < 100 nM.
`CNc1c(C(=O)NCCc2ccc(N3C[C@H]4CC[C@@H](C3)N4)cc2)sc2ncccc12` [Compound I-9] was tested, and the IC50 [1, 3] was < 100 nM, the “IC50(F)/IC50(E) USP28” value [1] was 9.2 and the IC50 [2, 4] was 100 to 1000 nM. For the same molecule, the “IC50(F)/IC50(E) USP25” value [2] was >10.
In the case of `CCc1ccc2c(NC)c(C(=O)NCCc3ccc(N4C[C@H]5CC[C@@H](C4)N5)cc3)sc2n1` [Compound I-10], the IC50 [1, 3] is reported as < 100 nM and the IC50 [2, 4] is reported as 1000 to 5000 nM.
For `CCCc1ccc2c(NC)c(C(=O)NCCc3ccc(N4C[C@H]5CC[C@@H](C4)N5)cc3)sc2n1` [Compound I-11], the IC50 [1, 3] was < 100 nM and the IC50 [2, 4] was > 10000 nM.
In the case of `CNc1c(C(=O)NCCc2ccc(N3C[C@H]4CC[C@@H](C3)N4)cc2)sc2nc(C(C)C)ccc12` [Compound I-12], the IC50 [1, 3] is reported as < 100 nM and the IC50 [2, 4] is reported as 5000 to 10000 nM.
With `CCCCc1ccc2c(NC)c(C(=O)NCCc3ccc(N4C[C@H]5CC[C@@H](C4)N5)cc3)sc2n1` [Compound I-13] the IC50 [1, 3] was < 100 nM and the IC50 [2, 4] was > 10000 nM.
In the case of `CNc1c(C(=O)NCCc2ccc(N3C[C@H]4CC[C@@H](C3)N4)cc2)sc2nc(CC(C)C)ccc12` [Compound I-14], the IC50 [1, 3] is reported as < 100 nM and the IC50 [2, 4] is reported as > 10000 nM.
In the case of `CNc1c(C(=O)NCCc2ccc(N3C[C@H]4CC[C@@H](C3)N4)cc2)sc2nc(C3CC3)ccc12` [Compound I-15], the IC50 [1, 3] is reported as < 100 nM and the IC50 [2, 4] is reported as 1000 to 5000 nM.
`CNc1c(C(=O)NCCc2ccc(N3C[C@H]4CC[C@@H](C3)N4)cc2)sc2nc(C(F)(F)F)ccc12` [Compound I-16] showed an IC50 [1, 5] of 100 to 1000 nM and an IC50 [2, 4] of 1000 to 5000 nM.
In the case of `CNc1c(C(=O)NCCc2ccc(N3C[C@H]4CC[C@@H](C3)N4)cc2)sc2nc(OC)ccc12` [Compound I-17], the IC50 [1, 5] is reported as 100 to 1000 nM and the IC50 [2, 4] is reported as 100 to 1000 nM.
With `CNc1c(C(=O)NCCc2ccc(N3C[C@H]4CC[C@@H](C3)N4)cc2)sc2ncc(F)cc12` [Compound I-18] the IC50 [1, 5] was 100 to 1000 nM and the IC50 [2, 4] was > 10000 nM.
In the case of `CNc1c(C(=O)NCCc2ccc(N3C[C@H]4CC[C@@H](C3)N4)cc2)sc2ncc(C)cc12` [Compound I-19], the IC50 [1, 5] is reported as 1000 to 5000 nM and the IC50 [2, 4] is reported as > 10000 nM.
For `CNc1c(C(=O)NCCc2ccc(N3C[C@H]4CC[C@@H](C3)N4)cc2)sc2nccc(C)c12` [Compound I-20], the IC50 [1, 5] was 100 to 1000 nM and the IC50 [2, 4] was 100 to 1000 nM.
`CNc1c(C(=O)NCCc2ccc(N3C[C@H]4CC[C@@H](C3)N4)cc2)sc2nccc(C(F)(F)F)c12` [Compound I-21] showed an IC50 [1, 5] of 100 to 1000 nM and an IC50 [2, 4] of 1000 to 5000 nM.
With `CNc1c(C(=O)NCCc2ccc(N3C[C@H]4CC[C@@H](C3)N4)cc2)sc2nc(CO)ccc12` [Compound I-22] the IC50 [1, 5] was 100 to 1000 nM and the IC50 [2, 4] was 100 to 1000 nM.
For `CCNc1c(C(=O)NCCc2ccc(N3C[C@H]4CC[C@@H](C3)N4)cc2)sc2nc(C)ccc12` [Compound I-23], the IC50 [1, 5] was 100 to 1000 nM and the IC50 [2, 4] was 5000 to 10000 nM.
`CCCNc1c(C(=O)NCCc2ccc(N3C[C@H]4CC[C@@H](C3)N4)cc2)sc2nc(C)ccc12` [Compound I-24] was tested, and the IC50 [1, 5] was 100 to 1000 nM and the IC50 [2, 4] was > 10000 nM.
With `Cc1ccc2c(NCCN(C)C)c(C(=O)NCCc3ccc(N4C[C@H]5CC[C@@H](C4)N5)cc3)sc2n1` [Compound I-25] the IC50 [1, 5] was 5000 to 10000 nM and the IC50 [2, 4] was > 10000 nM.
